Reference: US12391991B2, “Markers to predict macrocyclic lactone drug resistance in Dirofilaria immitis, the causative agent of heartworm disease” (priority 2013, dated 2025)
Entries after “also recorded” stand apart in the source; their conditions may differ. Read-outs that look alike come from different tables or passages of the source. Marks after values point to notes of the source that are not given here.

Columns and labels:
[1] = system: D. immitis microfilariae (LOE isolate case 4); conditions: in vivo
[2] = system: D. immitis Jd2009-2 isolate; parameters: species or system Dirofilaria immitis; conditions: in vivo
D. immitis microfilariae = system: D. immitis microfilariae; parameters: species or system Dirofilaria immitis; conditions: in vivo
[3] = system: D. immitis (LOE isolate case 5); parameters: species or system Dirofilaria immitis; conditions: in vivo
[4] = system: D. immitis mf from dog Jd2009; type: cell-based, Dirofilaria immitis
[5] = system: D. immitis (LOE isolate case 2); parameters: species or system Dirofilaria immitis; conditions: in vivo
[6] = system: adult heartworms (D. immitis); parameters: species or system Dirofilaria immitis; conditions: in vivo

CCN(CC)C(=O)N1CCN(C)CC1 [diethylcarbamazine]
Blood smear [1]: no mf
Side effects of the treatment [1]: No side effects

CO[C@H]1C[C@H](O[C@@H]2/C(C)=C/C[C@@H]3C[C@@H](C[C@]4(CC[C@H](C)[C@@H](C5CCCCC5)O4)O3)OC(=O)[C@@H]3C=C(C)/C(=N/O)[C@H]4OC/C(=C\C=C\[C@@H]2C)[C@]43O)O[C@@H](C)[C@@H]1O [SEL, selamectin]
Outcome of monthly chemoprophylaxis as recommended [2]: at least one dog in groups of four to six dogs on these heartworm preventatives became infected

CC[C@H](C)[C@H]1O[C@]2(CC[C@@H]1C)C[C@@H]1C[C@@H](C/C=C(\C)[C@@H](O[C@H]3C[C@H](OC)[C@@H](O[C@H]4C[C@H](OC)[C@@H](O)[C@H](C)O4)[C@H](C)O3)[C@@H](C)/C=C/C=C3\CO[C@@H]4[C@H](O)C(C)=C[C@@H](C(=O)O1)[C@]34O)O2 [IVM, ivermectin]
Knott's test result (D. immitis microfilariae): Knott's test +ve^a
Microfilaremic status (D. immitis microfilariae): remained continually microfilaremic; also recorded: still microfilaremic
Microfilariae concentration in blood (D. immitis microfilariae; po): ≥100^b mf/ml
mf status during weekly dosing [3]: remained positive for mf
Sensitivity of mf to drug [4]: significantly less sensitive
Knott's test [1]: again positive
Knott's tests [1]: both positive

milbemycin oxime [MO]
Knott's test result (D. immitis microfilariae): Knott's test +ve^a; also recorded: Knott's test +ve^c
Microfilaremic status (D. immitis microfilariae): remained continually microfilaremic
Microfilariae concentration in blood (D. immitis microfilariae): ≥100^b mf/ml
Microfilariae in blood (D. immitis microfilariae): microfilariae were still present
Heartworm antigen status [5]: heartworm antigen positive
Heartworm antigen test [3]: positive heartworm antigen test
Outcome of monthly chemoprophylaxis as recommended [2]: at least one dog in groups of four to six dogs on these heartworm preventatives became infected
Knott's test ([1]; po): positive

Cl.Cl.NCCS[As](SCCN)c1ccc(Nc2nc(N)nc(N)n2)cc1 [melarsomine dihydrochloride]
D. immitis antigen test [6]: negative
Antigen test Name-result (+ve or −ve) ([6]; dihydrochloride): SNAP −ve^a; also recorded: DiroChek −ve^c; also recorded: PetChek −ve^a
